Measurements as given in patent US8017652B2, “Activators of peroxisome proliferator-activated receptors” (Kowa Company Ltd., priority 2000, dated 2011).

Assays:
PPAR α mRNA = experiment: Expression of PPAR α mRNA in human cell line (RT-PCR); assay type: cell-based; conditions: Caco-2 cells, serum-free medium, 10 μM, 0-5 hours after addition, FIG. 1
Protocol: (§1) Caco-2 cells (derived from colon cancer) as a human cell line were cultured at 37° C. in RPMI-1640 medium containing 10% fetal calf serum in the presence of 5% C02. The medium was then replaced with serum-free RPMI-1640 medium and the cells were cultured for 48 hours. In order to examine the effect of NIK-333, a solution of NIK-333 in ethanol was added at a final concentration of 10 μM. At 0, 0.5, 1, 2 and 5 hours after the addition, RNA was extracted to observe. mRNA for PPAR α, PPAR γ1 and PPAR γ2 by the RT-PCR method.

PPAR γ1 mRNA = experiment: Expression of PPAR γ1 mRNA in human cell line (RT-PCR); assay type: cell-based; conditions: Caco-2 cells, serum-free medium, 10 μM, 0-5 hours after addition, FIG. 2
Protocol: as §1

PPAR γ2 mRNA = experiment: Expression of PPAR γ2 mRNA in human cell line (RT-PCR); assay type: cell-based; conditions: Caco-2 cells, serum-free medium, 10 μM, 0-5 hours after addition
Protocol: as §1

PPAR α = target: T1, PPAR α (Homo sapiens, UniProt Q07869); experiment: Ligand activity for PPAR α (PPRE luciferase reporter in COS-7 cells); assay type: cell-based; conditions: 10 μM, 24 hours, FIG. 3; for luciferase activity, PPAR α expression vector not introduced (−) / luciferase activity, PPAR α expression vector introduced (+): firefly luciferase standardized by renilla luciferase; for luciferase activity, PPAR α expression vector introduced (+): RXR α + PPAR α + PPRE reporter
T1 construct: expressed in transfected cells; host or cells: COS-7 (monkey kidney)
T1 sequence (Q07869 1-468): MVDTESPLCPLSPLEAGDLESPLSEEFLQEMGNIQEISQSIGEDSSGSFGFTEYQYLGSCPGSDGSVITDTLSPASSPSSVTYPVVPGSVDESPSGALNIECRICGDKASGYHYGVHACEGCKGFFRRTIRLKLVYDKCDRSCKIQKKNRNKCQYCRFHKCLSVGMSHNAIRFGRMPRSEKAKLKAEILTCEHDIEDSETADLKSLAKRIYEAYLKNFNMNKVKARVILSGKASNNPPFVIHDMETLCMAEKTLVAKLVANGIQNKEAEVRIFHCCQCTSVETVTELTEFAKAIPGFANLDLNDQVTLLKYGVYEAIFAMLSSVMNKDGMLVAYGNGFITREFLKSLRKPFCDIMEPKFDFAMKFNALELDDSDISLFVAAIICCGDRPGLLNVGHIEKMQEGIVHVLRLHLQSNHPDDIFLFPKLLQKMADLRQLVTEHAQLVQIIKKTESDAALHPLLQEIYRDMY
T1 sequence (P19793 1-462 partner): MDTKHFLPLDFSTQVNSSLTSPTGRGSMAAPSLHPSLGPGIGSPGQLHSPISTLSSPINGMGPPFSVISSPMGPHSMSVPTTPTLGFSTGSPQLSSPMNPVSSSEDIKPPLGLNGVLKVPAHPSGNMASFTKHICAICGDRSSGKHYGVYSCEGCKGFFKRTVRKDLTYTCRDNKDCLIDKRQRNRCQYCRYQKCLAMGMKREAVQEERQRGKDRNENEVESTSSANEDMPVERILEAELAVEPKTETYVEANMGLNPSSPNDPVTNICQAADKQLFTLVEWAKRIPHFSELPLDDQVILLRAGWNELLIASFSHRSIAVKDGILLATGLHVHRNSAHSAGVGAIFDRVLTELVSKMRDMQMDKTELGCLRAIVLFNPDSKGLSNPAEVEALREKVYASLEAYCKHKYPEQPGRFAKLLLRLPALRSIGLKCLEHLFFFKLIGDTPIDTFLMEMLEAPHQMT
Protocol: COS-7 cells, a cell line derived from monkey kidney, were cultured at 37° C. in DMEM medium containing 10% fetal calf serum in the presence of 5% CO2. Then, expression vectors of RXR α (retinoic acid X receptor α) and PPAR α, and a reporter vector incorporated with PPRE (peroxisome proliferator-responsive element) as a PPAR-responsive element were cotransfected into the cells, and the cells were cultured for 24 hours. In order to examine the effect of NIK-333, a solution of NIK-333 or Wy-14643(selective agonist of PPAR α) in ethanol was added at a final concentration of 10 μM. After cultivation for 24 hours, the activity of firefly luciferase was measured. The measured values were represented as values standardized by using the renilla luciferase activity.

hepatoma = conditions: clinical, cited from earlier work

luciferase activity, PPAR α expression vector introduced (+) (PPAR α)	Structure (SMILES)	expression of PPAR α mRNA (PPAR α mRNA)	expression of PPAR γ1 mRNA (PPAR γ1 mRNA)	expression of PPAR γ2 mRNA (PPAR γ2 mRNA)	increasing action of ligand activity compared with Wy-14643 (PPAR α)	luciferase activity, PPAR α expression vector not introduced (−) (PPAR α)	recurrence of hepatoma after radical treatment (hepatoma; long-term administration for one-year)	liver function failure or other adverse effect during the administration (hepatoma; long-term administration)
increased the luciferase activity	CC(C)=CCC/C(C)=C/CC/C(C)=C/C=C/C(C)=C/C(=O)O [NIK-333, (2E,4E,6E,10E)-3,7,11,15-Tetramethyl-2,4,6,10,14-hexadecapentaenoic acid]	observed from 0.5 hour after the addition	also observed from 0.5 hour after the addition	not observed	almost equivalent to the action of Wy-14643	failed to increase the luciferase activity	significantly inhibited recurrence of hepatoma	almost no liver function failure or almost no other adverse effect
increased the luciferase activity	Cc1cccc(Nc2cc(Cl)nc(SCC(=O)O)n2)c1C [Wy-14643, reference compound]	–	–	–	–	failed to increase the luciferase activity	–	–
